From patent US11109593B2, “Isoxazolin-5-one derivative and herbicide containing same as active ingredient” (HOKKO CHEMICAL INDUSTRY CO., LTD., priority 2017, dated 2021)

Each molecule was assayed on Chenopodium album (assay: Test Example 3: herbicidal effect test by treatment of dry field farming soil (one day after seeding)). Details: 120 g/10a active ingredient, evaluated 14 days after treatment.
Type: in vivo
Experimental: (§1) This test was conducted in a double system per one agent solution concentration area, and the herbicidal rates (%) were determined by the following equation (Math. 1) on 14 days after the treatment with the agents. Herbicidal Rate (%)={1-(Average Dry Weight (g) of Plant of Treated Area)/(Average Dry Weight (g) of Plant of Untreated Area)}×100 [Math. 1]
(§2) Herbicidal Effect Test by Treatment of Dry Field Farming Soil
(§3) Pots with a size of 36 cm^2 were filled with a dry field farming soil (alluvium). The soil of the top layer of 1 cm and seeds of weeds, namely southern crabgrass, Echinochloa crus-galli, Chenopodium album and Amaranthus viridis, 20 seeds each, were evenly mixed, and the top layer was gently pressed. Emulsions prepared using the compounds in Table 5 below according to Formulation Example 5 were diluted with water one day after seeding, and the water-diluted agent solutions were sprayed to the soil surfaces at a ratio of 100 liters per 10 ares. The converted amount of the applied active ingredient corresponded to 120 g per 10 ares. The herbicidal effects were evaluated by the same standard as that in Test Example 1 on 14 days after the treatment with the agents. […] The compound numbers in Table 5 are the same as those in Table 1 and Table 2 above.

Point of comparison: `Cc1c(Cc2ccccc2NS(=O)(=O)C(F)(F)F)c(=O)on1CCOCC(C)C` [Compound 1-156], “herbicidal rate, Chenopodium album” value 60%. Against it:
- CCn1oc(=O)c(Cc2ccccc2NS(=O)(=O)C(F)(F)F)c1C [Compound 1-98] — lower, 0%
- Cc1c(Cc2ccccc2NS(=O)(=O)C(F)(F)F)c(=O)on1CC1CC1 [Compound 1-143] — lower, 0%
- Cc1c(Cc2ccccc2NS(=O)(=O)C(F)(F)F)c(=O)on1CCSC(C)C [Compound 1-166] — the same, 60%
- Cc1c(Cc2ccccc2N(C(=O)OC(C)C)S(=O)(=O)C(F)(F)F)c(=O)on1C(C)(C)C [Compound 1-641] — higher, 90%

The molecules below were run on Amaranthus viridis in the same assay as above. Details: 120 g/10a active ingredient, evaluated 14 days after treatment.
Type: in vivo
Experimental: as §1, §2, §3

Point of comparison: `Cc1c(Cc2ccccc2NS(=O)(=O)C(F)(F)F)c(=O)on1CC1CC1` [Compound 1-143], “herbicidal rate, Amaranthus viridis” value 60%. Against it:
- CCn1oc(=O)c(Cc2ccccc2NS(=O)(=O)C(F)(F)F)c1C [Compound 1-98] — lower, 0%
- Cc1c(Cc2ccccc2NS(=O)(=O)C(F)(F)F)c(=O)on1CCOCC(C)C [Compound 1-156] — the same, 60%
- Cc1c(Cc2ccccc2NS(=O)(=O)C(F)(F)F)c(=O)on1CCSC(C)C [Compound 1-166] — the same, 60%
- Cc1c(Cc2ccccc2N(C(=O)OC(C)C)S(=O)(=O)C(F)(F)F)c(=O)on1C(C)(C)C [Compound 1-641] — higher, 90%

Each molecule was assayed on southern crabgrass in the same assay as above. Details: 120 g/10a active ingredient, evaluated 14 days after treatment.
Type: in vivo
Experimental: as §1, §2, §3

Point of comparison: `Cc1c(Cc2ccccc2NS(=O)(=O)C(F)(F)F)c(=O)on1CCSC(C)C` [Compound 1-166], “herbicidal rate, southern crabgrass” value 90%. Against it:
- CCn1oc(=O)c(Cc2ccccc2NS(=O)(=O)C(F)(F)F)c1C [Compound 1-98] — the same, 90%
- Cc1c(Cc2ccccc2NS(=O)(=O)C(F)(F)F)c(=O)on1CCOCC(C)C [Compound 1-156] — lower, 80%
- Cc1c(Cc2ccccc2NS(=O)(=O)C(F)(F)F)c(=O)on1CC1CC1 [Compound 1-143] — lower, 40%
- Cc1c(Cc2ccccc2N(C(=O)OC(C)C)S(=O)(=O)C(F)(F)F)c(=O)on1C(C)(C)C [Compound 1-641] — the same, 90%

These molecules were tested on Echinochloa crus-galli in the same assay as above. Details: 120 g/10a active ingredient, evaluated 14 days after treatment.
Type: in vivo
Experimental: as §1, §2, §3

Point of comparison: `Cc1c(Cc2ccccc2NS(=O)(=O)C(F)(F)F)c(=O)on1CC1CC1` [Compound 1-143], “herbicidal rate, Echinochloa crus-galli” value 50%. Against it:
- CCn1oc(=O)c(Cc2ccccc2NS(=O)(=O)C(F)(F)F)c1C [Compound 1-98] — higher, 90%
- Cc1c(Cc2ccccc2NS(=O)(=O)C(F)(F)F)c(=O)on1CCOCC(C)C [Compound 1-156] — higher, 80%
- Cc1c(Cc2ccccc2NS(=O)(=O)C(F)(F)F)c(=O)on1CCSC(C)C [Compound 1-166] — higher, 90%
- Cc1c(Cc2ccccc2N(C(=O)OC(C)C)S(=O)(=O)C(F)(F)F)c(=O)on1C(C)(C)C [Compound 1-641] — higher, 90%

What follows are molecules tested on broad leaf weeds (Lindernia pyxidaria and Monochoria vaginalis) (assay: Test Example 1: herbicidal effect test by treatment of rice paddy soil (immediately after seeding)). Details: Lindernia pyxidaria, 120 g/10a active ingredient, dry weight vs untreated area, 14 days after treatment.
Type: in vivo
Procedure, shortened: (§4)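 Flooded paddy pot test in a glass greenhouse: emulsion diluted in water, dropped at 120 g a.i. per 10 ares just after sowing, water depth kept about 3 cm. Dry-weight reduction relative to untreated plants is scored at 14 days.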

Point of comparison: `Cc1c(Cc2ccccc2NS(=O)(=O)C(F)(F)F)c(=O)on1CCOCC(C)C` [Compound 1-156], “Herbicidal rate (%) Lindernia pyxidaria” value 100%. Against it:
- CCn1oc(=O)c(Cc2ccccc2NS(=O)(=O)C(F)(F)F)c1C [Compound 1-98] — the same, 100%
- Cc1c(Cc2ccccc2NS(=O)(=O)C(F)(F)F)c(=O)on1CC1CC1 [Compound 1-143] — the same, 100%
- Cc1c(Cc2ccccc2NS(=O)(=O)C(F)(F)F)c(=O)on1CCSC(C)C [Compound 1-166] — lower, 90%
- Cc1c(Cc2ccccc2N(C(=O)OC(C)C)S(=O)(=O)C(F)(F)F)c(=O)on1C(C)(C)C [Compound 1-641] — lower, 90%

Same assay, conditions: Monochoria vaginalis, 120 g/10a active ingredient, dry weight vs untreated area, 14 days after treatment

Point of comparison: `CCn1oc(=O)c(Cc2ccccc2NS(=O)(=O)C(F)(F)F)c1C` [Compound 1-98], “Herbicidal rate (%) Monochoria vaginalis” value 100%. Against it:
- Cc1c(Cc2ccccc2NS(=O)(=O)C(F)(F)F)c(=O)on1CCOCC(C)C [Compound 1-156] — lower, 80%
- Cc1c(Cc2ccccc2NS(=O)(=O)C(F)(F)F)c(=O)on1CC1CC1 [Compound 1-143] — the same, 100%
- Cc1c(Cc2ccccc2NS(=O)(=O)C(F)(F)F)c(=O)on1CCSC(C)C [Compound 1-166] — lower, 90%
- Cc1c(Cc2ccccc2N(C(=O)OC(C)C)S(=O)(=O)C(F)(F)F)c(=O)on1C(C)(C)C [Compound 1-641] — lower, 90%

What follows are molecules tested on Scirpus juncoides in the same assay as above. Details: 120 g/10a active ingredient, dry weight vs untreated area, 14 days after treatment.
Type: in vivo
Procedure, shortened: as §4

Point of comparison: `Cc1c(Cc2ccccc2NS(=O)(=O)C(F)(F)F)c(=O)on1CC1CC1` [Compound 1-143], “Herbicidal rate (%) Scirpus juncoides” value 90%. Against it:
- CCn1oc(=O)c(Cc2ccccc2NS(=O)(=O)C(F)(F)F)c1C [Compound 1-98] — the same, 90%
- Cc1c(Cc2ccccc2NS(=O)(=O)C(F)(F)F)c(=O)on1CCOCC(C)C [Compound 1-156] — higher, 100%
- Cc1c(Cc2ccccc2NS(=O)(=O)C(F)(F)F)c(=O)on1CCSC(C)C [Compound 1-166] — the same, 90%
- Cc1c(Cc2ccccc2N(C(=O)OC(C)C)S(=O)(=O)C(F)(F)F)c(=O)on1C(C)(C)C [Compound 1-641] — the same, 90%

The molecules below were run on Echinochloa crus-galli in the same assay as above. Details: 120 g/10a active ingredient, dry weight vs untreated area, 14 days after treatment.
Type: in vivo
Procedure, shortened: as §4

Point of comparison: `Cc1c(Cc2ccccc2NS(=O)(=O)C(F)(F)F)c(=O)on1CCSC(C)C` [Compound 1-166], “Herbicidal rate (%) Echinochloa crus-galli” value 100%. Against it:
- CCn1oc(=O)c(Cc2ccccc2NS(=O)(=O)C(F)(F)F)c1C [Compound 1-98] — the same, 100%
- Cc1c(Cc2ccccc2NS(=O)(=O)C(F)(F)F)c(=O)on1CCOCC(C)C [Compound 1-156] — the same, 100%
- Cc1c(Cc2ccccc2NS(=O)(=O)C(F)(F)F)c(=O)on1CC1CC1 [Compound 1-143] — lower, 90%
- Cc1c(Cc2ccccc2N(C(=O)OC(C)C)S(=O)(=O)C(F)(F)F)c(=O)on1C(C)(C)C [Compound 1-641] — lower, 90%

What follows are molecules tested on broad leaf weeds (Lindernia pyxidaria and Monochoria vaginalis) (assay: Test Example 2: herbicidal effect test by treatment during growing period in paddy rice cultivation (seven days after seeding)). Details: Lindernia pyxidaria, 120 g/10a active ingredient, assessed 14 days after treatment, dry weight vs untreated area.
Type: in vivo
Procedure, shortened: (§5)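 Seeds sown 0–1 cm deep in puddled, fertilised paddy soil with about 3 cm standing water in a glass greenhouse. Diluted emulsion dropped into the water seven days after seeding at 120 g active ingredient per 10 ares. Herbicidal rate (%) from mean dry weight vs untreated, duplicate, 14 days after treatment.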

Point of comparison: `Cc1c(Cc2ccccc2NS(=O)(=O)C(F)(F)F)c(=O)on1CC1CC1` [Compound 1-143], “Herbicidal rate (%) Lindernia pyxidaria” value 70%. Against it:
- CCn1oc(=O)c(Cc2ccccc2NS(=O)(=O)C(F)(F)F)c1C [Compound 1-98] — lower, 60%
- Cc1c(Cc2ccccc2NS(=O)(=O)C(F)(F)F)c(=O)on1CCOCC(C)C [Compound 1-156] — higher, 100%
- Cc1c(Cc2ccccc2NS(=O)(=O)C(F)(F)F)c(=O)on1CCSC(C)C [Compound 1-166] — higher, 90%
- Cc1c(Cc2ccccc2N(C(=O)OC(C)C)S(=O)(=O)C(F)(F)F)c(=O)on1C(C)(C)C [Compound 1-641] — higher, 90%

Same assay, conditions: Monochoria vaginalis, 120 g/10a active ingredient, assessed 14 days after treatment, dry weight vs untreated area

Point of comparison: `Cc1c(Cc2ccccc2N(C(=O)OC(C)C)S(=O)(=O)C(F)(F)F)c(=O)on1C(C)(C)C` [Compound 1-641], “Herbicidal rate (%) Monochoria vaginalis” value 90%. Against it:
- CCn1oc(=O)c(Cc2ccccc2NS(=O)(=O)C(F)(F)F)c1C [Compound 1-98] — lower, 60%
- Cc1c(Cc2ccccc2NS(=O)(=O)C(F)(F)F)c(=O)on1CCOCC(C)C [Compound 1-156] — higher, 100%
- Cc1c(Cc2ccccc2NS(=O)(=O)C(F)(F)F)c(=O)on1CC1CC1 [Compound 1-143] — lower, 80%
- Cc1c(Cc2ccccc2NS(=O)(=O)C(F)(F)F)c(=O)on1CCSC(C)C [Compound 1-166] — the same, 90%

Each molecule was assayed on Scirpus juncoides in the same assay as above. Details: 120 g/10a active ingredient, assessed 14 days after treatment, dry weight vs untreated area.
Type: in vivo
Procedure, shortened: as §5

Point of comparison: `CCn1oc(=O)c(Cc2ccccc2NS(=O)(=O)C(F)(F)F)c1C` [Compound 1-98], “Herbicidal rate (%) Scirpus juncoides” value 90%. Against it:
- Cc1c(Cc2ccccc2NS(=O)(=O)C(F)(F)F)c(=O)on1CCOCC(C)C [Compound 1-156] — the same, 90%
- Cc1c(Cc2ccccc2NS(=O)(=O)C(F)(F)F)c(=O)on1CC1CC1 [Compound 1-143] — the same, 90%
- Cc1c(Cc2ccccc2NS(=O)(=O)C(F)(F)F)c(=O)on1CCSC(C)C [Compound 1-166] — the same, 90%
- Cc1c(Cc2ccccc2N(C(=O)OC(C)C)S(=O)(=O)C(F)(F)F)c(=O)on1C(C)(C)C [Compound 1-641] — the same, 90%

What follows are molecules tested on Echinochloa crus-galli in the same assay as above. Details: 120 g/10a active ingredient, assessed 14 days after treatment, dry weight vs untreated area.
Type: in vivo
Procedure, shortened: as §5

Point of comparison: `Cc1c(Cc2ccccc2NS(=O)(=O)C(F)(F)F)c(=O)on1CC1CC1` [Compound 1-143], “Herbicidal rate (%) Echinochloa crus-galli” value 90%. Against it:
- CCn1oc(=O)c(Cc2ccccc2NS(=O)(=O)C(F)(F)F)c1C [Compound 1-98] — lower, 80%
- Cc1c(Cc2ccccc2NS(=O)(=O)C(F)(F)F)c(=O)on1CCOCC(C)C [Compound 1-156] — lower, 80%
- Cc1c(Cc2ccccc2NS(=O)(=O)C(F)(F)F)c(=O)on1CCSC(C)C [Compound 1-166] — higher, 100%
- Cc1c(Cc2ccccc2N(C(=O)OC(C)C)S(=O)(=O)C(F)(F)F)c(=O)on1C(C)(C)C [Compound 1-641] — the same, 90%
